The compounds below were run on MT4 (assay: Inhibitory activity against HIV-1 in MT-4 lymphoid cells infected with IIIb). Settings: Homo sapiens, read-out: CIC95.
Format: functional

Question: Which IC95 does the source give for CC(C)(C)NC(=O)[C@@H]1C[C@@H]2CCCC[C@@H]2CN1C[C@@H](O)[C@H](Cc1ccccc1)NC(=O)[C@@H]1CCCS(=O)(=O)C1 here?
Answer: 200 nM

Question: How did the IC95 turn out when CC(C)(C)NC(=O)[C@@H]1C[C@@H]2CCCC[C@@H]2CN1C[C@@H](O)[C@H](Cc1ccccc1)NC(=O)[C@H]1CCCS(=O)(=O)C1 was run?
Answer: 400 nM

The compounds below were run against Human immunodeficiency virus type 1 protease (Human immunodeficiency virus 1, UniProt Q72874) (assay: Inhibition of HIV-1 Protease). Settings: not given.

Question: How did the IC50 turn out when CC(C)(C)NC(=O)[C@@H]1C[C@@H]2CCCC[C@@H]2CN1C[C@@H](O)[C@H](Cc1ccccc1)NC(=O)[C@@H]1CCCSC1 was run?
Answer: 78.4 nM

Question: With CC(C)(C)NC(=O)[C@@H]1C[C@@H]2CCCC[C@@H]2CN1C[C@@H](O)[C@H](Cc1ccccc1)NC(=O)[C@H]1CCCSC1 as the compound, how does the IC50 read?
Answer: 98.8 nM

Question: With CC(C)(C)NC(=O)[C@@H]1C[C@@H]2CCCC[C@@H]2CN1C[C@@H](O)[C@H](Cc1ccccc1)NC(=O)[C@@H]1CCS(=O)(=O)C1 as the compound, how does the IC50 read?
Answer: 200 nM

Question: How did the IC50 turn out when CC(C)(C)NC(=O)[C@@H]1C[C@@H]2CCCC[C@@H]2CN1C[C@@H](O)[C@H](Cc1ccccc1)NC(=O)[C@@H]1CCSC1 was run?
Answer: 342 nM

Question: With CC(C)(C)NC(=O)[C@@H]1C[C@@H]2CCCC[C@@H]2CN1C[C@@H](O)[C@H](Cc1ccccc1)NC(=O)C1=CCCSC1 as the compound, how does the IC50 read?
Answer: 167 nM

Question: CC(C)(C)NC(=O)[C@@H]1C[C@@H]2CCCC[C@@H]2CN1C[C@@H](O)[C@H](Cc1ccccc1)NC(=O)[C@H]1CCS(=O)(=O)C1 was tested. Which IC50 did it give?
Answer: 193 nM

Question: CC(C)(C)NC(=O)[C@@H]1C[C@@H]2CCCC[C@@H]2CN1C[C@@H](O)[C@H](Cc1ccccc1)NC(=O)C1=CCCS(=O)(=O)C1 was tested. Which IC50 did it give?
Answer: 54.7 nM

Question: How did the IC50 turn out when CC(C)(C)NC(=O)[C@@H]1C[C@@H]2CCCC[C@@H]2CN1C[C@@H](O)[C@H](Cc1ccccc1)NC(=O)[C@H]1CCSC1 was run?
Answer: 650 nM

Question: How did the IC50 turn out when CC(C)(C)NC(=O)[C@@H]1C[C@@H]2CCCC[C@@H]2CN1C[C@@H](O)[C@H](Cc1ccccc1)NC(=O)[C@@H]1CCCS(=O)(=O)C1 was run?
Answer: 9.2 nM

Question: How did the IC50 turn out when CC(C)(C)NC(=O)[C@@H]1C[C@@H]2CCCC[C@@H]2CN1C[C@@H](O)[C@H](Cc1ccccc1)NC(=O)[C@H]1CCCS(=O)(=O)C1 was run?
Answer: 23.5 nM

From ChEMBL document CHEMBL1128144, “Cyclic sulfone-3-carboxamides as novel P2-ligands for Ro 31-8959 based HIV-1 protease inhibitors” (Bioorg Med Chem Lett, 1995)
